Source: patent US6867192B1, “Compounds useful in the treatment of inflammatory diseases” (priority 1998, dated 2005)
Starred links: 1 amine or outer side, 2 acyl side, 3 side chain; linkers in the order of their positions; H or OH if unused. Residues, ends and D or L forms follow the SMILES beside them. Groups on a side chain read outwards from the residue. *: point of attachment. Morpholide = C1CN(*)CCO1; Cbz = O=C(OCc1ccccc1)*; CO = O=C([*:1])[*:2]

Biological target: T1, integrin VLA-4, expressed on the Jurkat J6 (human lymphoblast cell line) cell membrane with VCAM-1 (Homo sapiens, UniProt P05556+P13612)
T1 construct: integrin VLA-4, expressed on the Jurkat J6 (human lymphoblast cell line) cell membrane; endogenous in cells; host or cells: Jurkat J6 cells (integrin). zzVCAM-1 was made in house in Drosophila melanogaster S2 cells
Assay: Jurkat J6/VCAM-1 adhesion assay
Assay type: cell-based
Details: Jurkat J6 cell adhesion to VCAM-1, 1 mM MnCl2; mean of n experiments
Protocol: (1) Jurkat J6/VCAM-1 Adhesion Assay
This assay was used to investigate the interaction of the integrin VLA-4, expressed on the Jurkat J6 (human lymphoblast cell line) cell membrane with VCAM-1. Polystyrene 96-well microtitre plates were coated with human immunoglobulin G (IgG; Sigma Chemicals, UK, Product No. 14506) at a concentration of 0.05 mg ml^−1 in bicarbonate buffer (36 mM NaHCO3 and 22 mM Na2CO3, prepared in Dulbecco's phosphate buffered saline at pH 9.8 (PBS); Sigma Chemicals, UK, Product No. 14190-094) for 2 hours at 37° C. This solution was then aspirated and the plates were washed twice with PBS.
VCAM-1 was prepared by cloning its constituent seven domains into a Drosophila expression system with a zz (Protein A) tag. This zzVCAM-1 was then expressed from Drosophila melanogaster S2 cell culture, induced with copper. Protease inhibitors were added and the culture supernatant was clarified either by filtration through a 0.2 μm filter or by centrifugation. The zzVCAM-1 was then purified from this clarified medium using an IgG agarose column, equilibrated with either 20 mM sodium phosphate pH 7.2 alone or in the presence of 0.5M sodium chloride. Elution of zzVCAM-1 from the column was mediated using 3M ammonium thiocyanate, which was subsequently removed using a G25 desalting column, equilibrated with 20 mM sodium phosphate, pH 7.2. The purified zzVCAM-1 was then concentrated to a small volume (Amicon stirred cell concentrators) until a concentration of 62.5 ng ml^−1 was obtained, calculated using the extinction coefficient value.
This solution of zzVCAM-1 was then incubated overnight at 4° C. in the IgG coated microtitre plates with 3% bovine serum albumin (BSA) in PBS, followed by aspiration and two further washes with PBS. A concentration of the Jurkat J6 cells (6×10^6 cels ml^−1), grown in cell media RPMI 1640 (HyClone Ltd, Product No. B-9106-L) supplemented with 10% heat inactivated fetal calf serum (FCS; Gibco BRL, Product No. 10099-075) and 2 mM L-glutamine, were labelled with 10 μM of the fluorescent dye, 2′, 7′-bis(2-carboxyethyl)-5-(e6)-carboxyfluorescein acetoxymethyl ester (BCECF-AM; Molecular Probes Inc, Product No. B-1150) at 37° C. for 10 minutes. The excess dye was then removed by centrifugation at 500×g for 5 minutes and the cells were resuspended at a concentration of 1.2×10^7 cells ml^−1 in Hank's balanced salt solution (HBSS; Gibco BRL, Product No. 14190-094).
Equal volumes of compounds (dissolved in an appropriate solvent and diluted in HBSS containing 1 mM MnCl2) and the labelled Jurkat J6 cells, were added to the VCAM-1 coated plates and adhesion was allowed to proceed for 30 minutes at 37° C. Non, or loosely adhered cells, were removed by inversion of the plate and blotted with tissue paper. Two washes with PBS and further blotting were then performed, before the addition of 2% detergent (Triton-X®; Sigma Chemicals UK, Product No. X100). Counting was undertaken in a Wallac Viktor™ Fluorimeter, where low fluorescence values were indicative of compounds which had inhibited adhesion. All samples were assayed in singlicate and the following four parameter curve fit, shown by Equation (I) was applied: [formula]
Where a is the minimum, b is the Hill slope, c is the IC50 and d is the maximum. (Maximum and minimum values are those compared to adhesion in the absence of compound and in the presence of the dipotassium salt of 2 mM EDTA; Sigma Chemicals, UK, Product No. ED2P). Data is presented as the mean pIC50 with the standard error of the mean of n experiments.

T1 sequence (P13612 34-1032): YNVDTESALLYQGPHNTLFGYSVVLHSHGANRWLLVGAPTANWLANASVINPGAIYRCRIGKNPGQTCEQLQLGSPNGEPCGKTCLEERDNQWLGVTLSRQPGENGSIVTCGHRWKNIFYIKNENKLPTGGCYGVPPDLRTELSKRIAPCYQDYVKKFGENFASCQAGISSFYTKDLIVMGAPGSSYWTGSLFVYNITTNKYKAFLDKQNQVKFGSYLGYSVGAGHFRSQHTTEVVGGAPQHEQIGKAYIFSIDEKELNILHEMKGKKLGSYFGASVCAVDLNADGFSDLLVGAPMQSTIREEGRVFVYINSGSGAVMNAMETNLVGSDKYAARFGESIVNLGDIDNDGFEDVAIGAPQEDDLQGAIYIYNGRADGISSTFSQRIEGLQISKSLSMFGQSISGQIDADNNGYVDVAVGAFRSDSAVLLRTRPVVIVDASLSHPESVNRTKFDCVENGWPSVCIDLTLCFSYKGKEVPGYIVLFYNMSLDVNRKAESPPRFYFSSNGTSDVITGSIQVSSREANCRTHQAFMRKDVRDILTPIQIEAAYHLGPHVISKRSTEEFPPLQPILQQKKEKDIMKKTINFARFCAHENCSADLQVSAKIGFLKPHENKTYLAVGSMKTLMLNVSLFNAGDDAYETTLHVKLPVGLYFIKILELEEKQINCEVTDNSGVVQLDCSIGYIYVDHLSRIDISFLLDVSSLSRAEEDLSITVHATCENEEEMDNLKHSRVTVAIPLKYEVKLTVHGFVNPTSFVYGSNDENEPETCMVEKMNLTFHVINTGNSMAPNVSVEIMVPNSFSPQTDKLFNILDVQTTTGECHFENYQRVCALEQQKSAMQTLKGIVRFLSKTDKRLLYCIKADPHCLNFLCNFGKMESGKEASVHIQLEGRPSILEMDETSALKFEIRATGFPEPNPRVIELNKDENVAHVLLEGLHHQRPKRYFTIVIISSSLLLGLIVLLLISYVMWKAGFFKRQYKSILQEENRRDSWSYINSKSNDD
T1 sequence (P05556 21-798): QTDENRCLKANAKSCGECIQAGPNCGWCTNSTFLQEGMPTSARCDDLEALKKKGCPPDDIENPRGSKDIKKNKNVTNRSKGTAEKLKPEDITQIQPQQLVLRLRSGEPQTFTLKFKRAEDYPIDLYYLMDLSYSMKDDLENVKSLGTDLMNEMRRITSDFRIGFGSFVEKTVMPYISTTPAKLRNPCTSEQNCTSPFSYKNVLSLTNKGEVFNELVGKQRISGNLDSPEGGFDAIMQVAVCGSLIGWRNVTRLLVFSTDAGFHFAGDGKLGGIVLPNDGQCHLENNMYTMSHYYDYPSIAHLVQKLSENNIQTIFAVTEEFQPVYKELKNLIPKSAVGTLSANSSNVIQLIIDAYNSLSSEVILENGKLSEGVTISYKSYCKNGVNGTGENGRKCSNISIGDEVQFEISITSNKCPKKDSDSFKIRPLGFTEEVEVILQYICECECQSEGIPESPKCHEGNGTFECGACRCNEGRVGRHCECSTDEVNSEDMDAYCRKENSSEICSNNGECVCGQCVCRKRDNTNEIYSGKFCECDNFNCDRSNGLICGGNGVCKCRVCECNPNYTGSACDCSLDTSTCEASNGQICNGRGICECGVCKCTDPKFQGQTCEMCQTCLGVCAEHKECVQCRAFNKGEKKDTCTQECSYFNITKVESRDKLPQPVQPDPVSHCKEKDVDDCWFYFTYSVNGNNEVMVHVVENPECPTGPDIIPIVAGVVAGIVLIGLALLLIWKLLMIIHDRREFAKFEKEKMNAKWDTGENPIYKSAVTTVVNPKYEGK

Q: Which IC50 does the source give for `Cc1ccccc1OCC(=O)N[C@@H](CC(C)C)C(=O)N[C@@H](Cc1ccc(OC(=O)N2CCOCC2)cc1)C(=O)O` [Example 25, (2S)-2-[((2S)-4-Methyl-2-{[2-(2-methylphenoxy)acetyl]amino}pentanoyl)amino]-3-{4-[(4-morpholinylcarbonyl)oxy]phenyl}propanoic acid] here?
A: 3.16 nM

Q: For `CC(C)C[C@H](NC(=O)COc1ccccc1I)C(=O)N[C@@H](Cc1ccc(OC(=O)N2CCC(C(N)=O)CC2)cc1)C(=O)O` [Example 26, (2S)-3-[4-({[4-(Aminocarbonyl)-1-piperidinyl]carbonyl}oxy)phenyl]-2-[((2S)-2-{[2-(2-iodophenoxy)acetyl]amino}-4-methylpentanoyl)amino]propanoic acid], which IC50 is on record?
A: 2.95 nM

Q: `CC(C)C[C@H](NC(=O)COc1ccccc1C(C)(C)C)C(=O)N[C@@H](Cc1ccc(OC(=O)N2CCC(C(=O)N3CCCCC3)CC2)cc1)C(=O)O` [Example 29, (2S)-2-{[(2S)-2-({2-[2-(Tert-butyl)phenoxy]acetyl}amino)-4-methylpentanoyl]amino}-3-[4-({[4-(1-piperidinylcarbonyl)-1-piperidinyl]carbonyl}oxy)phenyl]propanoic acid] was tested. Which IC50 did it give?
A: 16.2 nM

Q: How did the IC50 turn out when `Cc1ccccc1OCC(=O)N[C@@H](CC(C)C)C(=O)N[C@@H](Cc1ccc(OC(=O)N2CCC(C(=O)N3CCCCC3)CC2)cc1)C(=O)O` [Example 30, (2S)-2-[((2S)-4-Methyl-2-{[2-(2-methylphenoxy)acetyl]amino}pentanoyl)amino]-3-[4-({[4-(1-piperidinylcarbonyl)-1-piperidinyl]carbonyl}oxy)phenyl]propanoic acid] was run?
A: 5.75 nM

Q: Which IC50 does the source give for `CC(C)C[C@H](NC(=O)c1cccc2c1oc1ccccc12)C(=O)N[C@@H](Cc1ccc(OC(=O)N2CCC(C(=O)N3CCCCC3)CC2)cc1)C(=O)O` [Example 31, (2S)-2-({(2S)-2-[(Dibenzo[b,d]furan-4-ylcarbonyl)amino]-4-methylpentanoyl}amino)-3-[4-({[4-(1-piperidinylcarbonyl)-1-piperidinyl]carbonyl}oxy)phenyl]propanoic acid] here?
A: 25.7 nM

Q: Which IC50 does the source give for `CC(C)C[C@H](NC(=O)COc1ccc2ccccc2c1Br)C(=O)N[C@@H](Cc1ccc(OC(=O)N2CCC(C(=O)N3CCCCC3)CC2)cc1)C(=O)O` [Example 32, (2S)-2-{[(2S)-2-({2-[(1-Bromo-2-naphthyl)oxy]acetyl}amino)-4-methylpentanoyl]amino}-3-[4-({[4-(1-piperidinylcarbonyl)-1-piperidinyl]carbonyl}oxy)phenyl]propanoic acid] here?
A: 24 nM

Q: `CC(C)C[C@H](NC(=O)COc1ccccc1C(C)(C)C)C(=O)N[C@@H](Cc1ccc(OC(=O)N2CCC(C(N)=O)CC2)cc1)C(=O)O` [Example 33, (2S)-3-[4-({[4-(Aminocarbonyl)-1-piperidinyl]carbonyl}oxy)phenyl]-2-{[(2S)-2-({2-[2-(tert-butyl)phenoxy]acetyl}amino)-4-methylpentanoyl]amino}propanoic acid] was tested. Which IC50 did it give?
A: 3.47 nM

Q: Which IC50 does the source give for `CC(C)C[C@H](NC(=O)COc1ccccc1C(C)(C)C)C(=O)N[C@@H](Cc1ccc(OC(=O)N2CCC(C(=O)NCc3ccc(F)cc3)CC2)cc1)C(=O)O` [Example 34, (2S)-2-{[(2S)-2-({2-[2-(Tert-butyl)phenoxy]acetyl}amino)-4-methylpentanoyl]amino}-3-(4-{[(4-{[(4-fluorobenzyl)amino]carbonyl}-1-piperidinyl)carbonyl]oxy}phenyl)propanoic acid] here?
A: 26.9 nM

Q: Which IC50 does the source give for `CC(C)C[C@H](NC(=O)COc1ccc(Cl)cc1Cl)C(=O)N[C@@H](Cc1ccc(OC(=O)N2CCOCC2)cc1)C(=O)O` [Example 35, (2S)-2-[((2S)-2-{[2-(2,4-Dichlorophenoxy)acetyl]amino}-4-methylpentanoyl)amino]-3-{4-[(4-morpholinylcarbonyl)oxy]phenyl}propanoic acid] here?
A: 6.61 nM

Q: Which IC50 does the source give for `CC(C)C[C@H](NC(=O)COc1ccccc1C(=O)c1ccccc1)C(=O)N[C@@H](Cc1ccc(OC(=O)N2CCOCC2)cc1)C(=O)O` [Example 36, (2S)-2-[((2S)-2-{[2-(2-Benzoylphenoxy)acetyl]amino}-4-methylpentanoyl)amino]-3-{4-[(4-morpholinylcarbonyl)oxy]phenyl}propanoic acid] here?
A: 12.3 nM

Q: `CCCc1ccccc1OCC(=O)N[C@@H](CC(C)C)C(=O)N[C@@H](Cc1ccc(OC(=O)N2CCOCC2)cc1)C(=O)O` [Example 37, (2S)-2-[((2S)-4-Methyl-2-{[2-(2-propylphenoxy)acetyl]amino}pentanoyl)amino]-3-{4-[(4-morpholinylcarbonyl)oxy]phenyl}propanoic acid] was tested. Which IC50 did it give?
A: 5.75 nM

Q: Which IC50 does the source give for `CC(C)C[C@H](NC(=O)COc1ccc2ccccc2c1Br)C(=O)N[C@@H](Cc1ccc(OC(=O)N2CCOCC2)cc1)C(=O)O` [Example 38, (2S)-2-{[(2S)-2-({2-[(1-Bromo-2-naphthyl)oxy]acetyl}amino)-4-methylpentanoyl]amino}-3-{4-[(4-morpholinylcarbonyl)oxy]phenyl}propanoic acid] here?
A: 15.5 nM

Q: How did the IC50 turn out when `CC(C)C[C@H](NC(=O)COc1ccccc1C1CCCCC1)C(=O)N[C@@H](Cc1ccc(OC(=O)N2CCOCC2)cc1)C(=O)O` [Example 39, (2S)-2-[((2S)-2-{[2-(2-Cyclohexylphenoxy)acetyl]amino}-4-methylpentanoyl)amino]-3-{4-[(4-morpholinylcarbonyl)oxy]phenyl}propanoic acid] was run?
A: 22.4 nM

Q: `CC(C)C[C@H](NC(=O)OCc1ccccc1)C(=O)N[C@@H](Cc1ccc(OC(=O)N2CCOCC2)cc1)C(=O)O` [Example 40, (2S)-2-[((2S)-2-{[(Benzyloxy)carbonyl]amino}-4-methylpentanoyl)amino]-3-{4-[(4-morpholinylcarbonyl)oxy]phenyl}propanoic acid] (Cbz-Leu-Tyr([CO-Morpholide])-OH) was tested. Which IC50 did it give?
A: 9.12 nM

Q: `CC(C)C[C@H](NC(=O)COc1ccccc1I)C(=O)N[C@@H](Cc1ccc(OC(=O)N2CCN(C(=O)c3ccco3)CC2)cc1)C(=O)O` [Example 41, (2S)-3-[4-({[4-(2-Furoyl)-1-piperazinyl]carbonyl}oxy)phenyl]-2-[((2S)-2-{[2-(2-iodophenoxy)acetyl]amino}-4-methylpentanoyl)amino]propanoic acid] was tested. Which IC50 did it give?
A: 9.33 nM

Q: `CC(C)C[C@H](NC(=O)COc1ccccc1C(C)(C)C)C(=O)N[C@@H](Cc1ccc(OC(=O)N2CCN(C(=O)c3ccco3)CC2)cc1)C(=O)O` [Example 42, (2S)-2-{[(2S)-2-({2-[2-(Tert-butyl)phenoxy]acetyl}amino)-4-methylpentanoyl]amino}-3-[4-({[4-(2-furoyl)-1-piperazinyl]carbonyl}oxy)phenyl]propanoic acid] was tested. Which IC50 did it give?
A: 11 nM

Q: With `CC(C)C[C@H](NC(=O)COc1ccccc1C1CCCCC1)C(=O)N[C@@H](Cc1ccc(OC(=O)N2CCN(C(=O)c3ccco3)CC2)cc1)C(=O)O` [Example 43, (2S)-2-[((2S)-2-{[2-(2-Cycohexylphenoxy)acetyl]amino}-4-methylpentanoyl)amino]-3-[4-({[4-(2-furoyl)-1-piperazinyl]carbonyl}oxy)phenyl]propanoic acid] as the molecule, how does the IC50 read?
A: 22.4 nM

Q: Which IC50 does the source give for `CC(C)C[C@H](NC(=O)COc1ccc2ccccc2c1Br)C(=O)N[C@@H](Cc1ccc(OC(=O)N2CCN(C(=O)c3ccco3)CC2)cc1)C(=O)O` [Example 44, (2S)-2-{[(2S)-2-({2-[(1-Bromo-2-naphthyl)oxy]acetyl}amino)-4-methylpentanoyl]amino}-3-[4-({[4-(2-furoyl)-1-piperazinyl]carbonyl}oxy)phenyl]propanoic acid] here?
A: 24 nM
